Test results as given in patent US8618154B2, “LXR modulators” (Bristol-Myers Squibb Company, priority 2009, dated 2013).

How the values were obtained:
[1] = High throughput metabolic stability in human microsomes; type: in vitro ADME; conditions: parent compound remaining at 10 minutes, human liver microsomes
Experimental: The metabolic stability assay evaluates CYP-mediated metabolic stability in vitro using Human liver microsomes after a ten-minute incubation.
Test compound is received as a 3.5 mM stock solution in 100 percent DMSO. Compound is diluted to create a 50 μM acetonitrile (ACN) solution containing 1.4% DMSO, which is then used as a 100× stock for incubation with human liver microsomes. Each compound is tested in duplicate. Compound, NADPH and liver microsome solutions are combined for incubation in three steps: • 1) 152 μl of liver microsome suspension, protein concentration of 1.1 mg/ml in 100 mM NaPi, pH 7.4, 5 mM MgCl2 buffer, is pre-warmed at 37° C. • 2) 1.7 μl of 50 μM compound (98.6% ACN, 1.4% DMSO) is added to the same tube and pre-incubated at 37° C. for 5 minutes. • 3) The reaction is initiated by the addition of 17 μl of pre-warmed 10 mM NADPH solution in 100 mM NaPi, pH 7.4.
Reaction components are mixed well, and 75 μl are immediately transferred into 150 μl quench/stop solution (zero-time point, T0). Reactions are incubated at 37° C. for 10 minutes and then an additional 75 μl aliquot is transferred into 150 μl quench solution. Acetonitrile containing 100 μM DMN (a UV standard for injection quality control), is used as the quench solution to terminate metabolic reactions.
Quenched mixtures are centrifuged at 1500 rpm (˜500× g) in an Allegra X-12 centrifuge, SX4750 rotor (Beckman Coulter Inc., Fullerton, Calif.) for fifteen minutes to pellet denatured microsomes. A volume of 90 μl of supernatant extract, containing the mixture of parent compound and its metabolites, is then transferred to a separate 96-well plate for UV-LC/MS-MS analysis to determine the per cent of parent compound that is remaining in the mixture.
The mass spectrometric conditions obtained from automated infusion are used to analyze incubation samples from the Metabolic Stability assay. The injection volume is 5 μl and the flow rate is 0.8 ml/min. The gradient used is show in the table below. All samples are injected with the gradient using mobile phase A and B first. If necessary (for instance, for chromatographic reasons), samples are re-injected with the same gradient, but using mobile phase C and D. All LC-MS/MS analysis parameters are captured electronically in the raw data files.
Peak integration is performed with the Xcalibur™ software. The percent remaining calculation is performed by comparing the LC-MS/MS peak areas from the T10minute samples to those from the T0minute samples for each compound.

[2] = tested on: ABCG1 mRNA in blood cells; test: In vivo potency and maximum ABCG1 induction in cynomolgus monkey; conditions: po; for EC50: Macaca fascicularis, 5 h
Experimental: Compounds of the present invention were tested for their ability to induce the mRNA for the LXR target gene ABCG1 in blood cells when administered orally to cynomolgus monkeys.
Test compounds were formulated in 0.5% carboxymethyl cellulose (CMC, Sigma) and 2% Tween 80 (Sigma) by trituration. Each treatment group contained three male monkeys, each weighing 3.0-6.0 kg at the start of the study. Test compounds were formulated fresh each morning in vehicle, and animals that had been fasted the previous night were dosed between 7 and 7:30 AM by po gavage. For baseline blood cell mRNA determinations, 1 ml of venous blood was collected in an EDTA dry-coated tube and 1 volume of Dulbecco's Phosphate Buffered Saline without calcium or magnesium and 2 volumes of Nucleic Acid Purification Lysis Solution (Applied Biosystems, Inc.) were added. Samples were frozen at −80° C. prior to RNA isolation and analysis. Test compounds were dosed following the baseline sample collection. At 5 hr post-dose, venous blood was collected and processed as above for RNA determinations. An additional 0.5 ml of blood was also collected and analyzed for compound plasma concentrations.
Frozen samples were allowed to thaw at room temperature, and then placed on ice. Total RNA was isolated on the ABI 6100 using a pre-loaded protocol according to the manufacturer's instructions (ABI Manual #4332809 Rev. B).
qScript cDNA Synthesis Kit from Quanta Biosciences, Inc. was used to generate first-strand cDNA from each total RNA sample. 20 μl Reactions were carried out in 96-well Eppendorf AG twin-tec PCR plates on a MJ Research, Inc. model PTC-200 DNA Engine. Approximately 500 ng of total RNA was used for each reaction. Reactions were composed as follows: 4 μl 5× q-Script Reaction Mix plus 3-5 μl nuclease-free water plus 1 μl q-Script Reverse Transcriptase plus 10-12 μl input RNA. After mixing, reactions were centrifuged at 3750 rpm for 2 minutes at room temperature and run on a “q-Script” protocol (25° C. for 5 minutes, followed by 42° C. for 30 minutes, and then 85° C. for 5 minutes) in a MJ Research thermocycler. Each reaction was diluted with 30 μl of nuclease-free water and used immediately for SYBR-green Q-PCR or stored at −20° C. SYBR-Green Q-PCR reactions were performed as follows. Reaction mixtures for the LXR target gene, ABCG1, and the internal standard normalization gene ribosomal protein L30 were prepared using validated forward/reverse primer sets [ABCG1 (X-Mmul-ABCG1-F1 and X-Mmul-ABCG1-R1); ribosomal protein L30 (SYBR-hL30-F1 and SYBR-hL30-R1)]. […]
The relative amount of ABCG1 mRNA was calculated using the second derivative comparative Ct method (2^−ΔΔCt). Quantification was obtained after normalization to ribosomal protein L30 mRNA. […]

| SMILES | Human Microsome % Remaining [1] | EC50 [2] | Maximum ABCG1 Induction (fold vs. baseline ± S.E.) ([2]; blood cells, 5 hrs post-dose) |
| --- | --- | --- | --- |
| CC(C)(O)c1cn(-c2ccc(-c3cccc(S(C)(=O)=O)c3)cc2)c(C(C)(C)c2ccccc2Cl)n1 [Compound No. 19, Table 1, WO 2007/002563, reference compound] | >80% | 630 ± 168 nM | 12.4 ± 1.8 fold vs. baseline |
| CC(C)(O)c1cn(-c2ccc(-c3cc(F)c(CO)c(S(C)(=O)=O)c3)cc2)c(C(C)(C)c2cccc(F)c2Cl)n1 [Example 4, 2-(2-(2-(2-chloro-3-fluorophenyl)propan-2-yl)-1-(3′-fluoro-4′-(hydroxymethyl)-5′-(methylsulfonyl)biphenyl-4-yl)-1H-imidazol-4-yl)propan-2-ol] | >80% | 141 ± 53 nM | – |
| CC(C)(O)c1cn(-c2ccc(-c3cc(F)c(CO)c(S(C)(=O)=O)c3)cc2F)c(C(C)(C)c2c(Cl)cccc2Cl)n1 [Example 9, 2-(2-(2-(2,6-dichlorophenyl)propan-2-yl)-1-(3,3′-difluoro-4′-(hydroxymethyl)-5′-(methylsulfonyl)biphenyl-4-yl)-1H-imidazol-4-yl)propan-2-ol] | >80% | 11 ± 6 nM | – |
